In US8178528B2, “Histamine H3 receptor agents, preparation and therapeutic uses” (Eli Lilly and Company, priority 2005, dated 2012):

Biological target: T1, H3R membranes (H3R8-expressing HEK293 cell line) (Homo sapiens, UniProt Q9Y5N1)
T1 construct: expressed in transfected cells; membranes
Assay: [35S] GTP gamma [S] binding assay
Format: biochemical
Conditions: agonist R(-)alpha methylhistamine
Procedure: Membranes isolated as described in (Preparation of Histamine Receptor Subtype Membranes) are used in a [35S]GTPχS functional assay. Binding of [35S]GTPχS to membranes indicates agonist activity. Compounds of the invention of Formula I or Formula II are tested for their ability to inhibit binding in the presence of agonists. Alternately, the same transfected cell lines are used for a cAMP assay wherein H3R agonists inhibit forskolin-activated synthesis of cAMP. Compounds of Formula I or Formula II are tested for their ability to permit forskolin-stimulated cAMP synthesis in the presence of agonist.
cDNA for the human histamine 3 receptor is cloned and expressed as described in (A. Preparation H1R membranes), above. Transfected cells are selected using G418 ([…]), grown, and tested for histamine binding by the SPA described above. For total binding, cells are assayed in a SPA reaction described above containing 50 mM Tris-HCL (assay buffer), pH 7.6, 1 mg wheat germ agglutinin SPA beads (Amersham Pharmacia Biotech, #RPNQ0001), and 1 nM (3H)-n-alpha-methylhistamine (NEN, NET1027) (total volume per well=200 μl). Thioperimide is added to determine non-specific binding. […]
Antagonist activity of selected compounds is tested for inhibition of [35S] […] Plates are counted in Wallac Trilux 1450 Microbeta scintillation counter for 1 minute. […]

T1 sequence (Q9Y5N1 whole entry): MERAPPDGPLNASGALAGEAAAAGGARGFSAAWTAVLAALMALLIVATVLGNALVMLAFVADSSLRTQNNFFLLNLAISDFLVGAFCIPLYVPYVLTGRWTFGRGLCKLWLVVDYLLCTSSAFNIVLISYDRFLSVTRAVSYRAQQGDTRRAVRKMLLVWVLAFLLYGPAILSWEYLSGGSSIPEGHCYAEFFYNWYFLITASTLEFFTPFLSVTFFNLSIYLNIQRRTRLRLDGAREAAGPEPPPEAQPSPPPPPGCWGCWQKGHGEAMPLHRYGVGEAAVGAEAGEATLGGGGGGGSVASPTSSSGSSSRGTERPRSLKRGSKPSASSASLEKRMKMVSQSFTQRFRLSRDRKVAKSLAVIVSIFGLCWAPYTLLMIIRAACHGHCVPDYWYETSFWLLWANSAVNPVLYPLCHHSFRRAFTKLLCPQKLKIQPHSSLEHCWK

SMILES | Ki
O=C(c1ccc(S(=O)(=O)c2ccccc2)cc1)N1CCC[C@H]1CN1CCCC1 | 12 nM
O=C(c1ccc(C2CCCCC2)cc1)N1CCC[C@H]1CN1CCCC1 | 47 nM
